# Test results reported in ChEMBL document CHEMBL6071152, “Design, synthesis, and biological evaluation of oridonin derivatives as novel NLRP3 inflammasome inhibitors for the treatment of acute lung injury” (Eur J Med Chem, 2024).
# Calls of active or inactive are those of the source. No cut-off for these calls is given here.
# Experiments:
# [1] = biological target: NACHT, LRR and PYD domains-containing protein 3 (Mus musculus) (UniProt Q8R4B8); experiment: Inhibition of NLRP3 inflammasome priming in ICR mouse BMDM assessed as inhibition of ASC protein expression in cell lysate at 0.2 to 5 uM treated for 3 hrs with LPS followed by incubation with compound for 1 hr and later stimulated with ATP for 0.5 hrs by western blot analysis; format: subcellular; settings: dose 0.2-5 µM, time 1.5 hrs
# [2] = biological target: NACHT, LRR and PYD domains-containing protein 3 (Mus musculus) (UniProt Q8R4B8); experiment: Inhibition of NLRP3 inflammasome activation in ICR mouse BMDM assessed as inhibition of LPS/MSU-stimulated IL-1 beta secretion in cell supernatant at 1 uM treated for 3 hrs with LPS followed by incubation with compound for 1 hr and later stimulated with MSU for 4 hrs by ELISA; format: cell-based; settings: time 5.0 hrs
# [3] = system: Mus musculus; experiment: (§1) Anti-inflammatory activity against LPS-stimulated acute lung injury C57BL/6 mouse model assessed as decrease in IL-6 mRNA expression in right lung at 0.1 to 1 mg/kg, ip treated for 3 days and on third day administered with LPS at 30 mins post-compound challenge and measured after 12 hrs by RT-qPCR analysis; format: functional, organism-based; settings: dose 0.1-1 mg/kg, time 3.5 day
# [4] = biological target: NACHT, LRR and PYD domains-containing protein 3 (Mus musculus) (UniProt Q8R4B8); experiment: Inhibition of NLRP3 inflammasome priming in ICR mouse BMDM assessed as inhibition of ASC expression in cell supernatant at 0.2 to 5 uM pretreated with compound for 1 hr followed by stimulation with LPS for 3 hrs and later incubated with ATP for 30 mins by western blot analysis; format: cell-based; settings: dose 0.2-5 µM, time 4.5 hrs
# [5] = biological target: NACHT, LRR and PYD domains-containing protein 3 (Mus musculus) (UniProt Q8R4B8); experiment: (§2) Inhibition of NLRP3 inflammasome activation in ICR mouse BMDM assessed as inhibition of LPS/ATP-stimulated caspase-1 expression in cell supernatant at 1 uM treated for 3 hrs with LPS followed by incubation with compound for 1 hr and later stimulated with ATP for 0.5 hrs by western blot analysis; format: cell-based; settings: time 1.5 hrs
# [6] = system: Mus musculus; experiment: as §1, with “in thickening of alveolar septa” for “in IL-6 mRNA expression”, “at 1” for “at 0.1”, “to 10” for “to 1”, “by Hematoxylin-Eosin staining” for “by RT-qPCR”; format: functional, organism-based; settings: dose 1-10 mg/kg, time 3.5 day
# [7] = biological target: NLR family CARD domain-containing protein 4 (Mus musculus) (UniProt Q3UP24); experiment: Inhibition of NLRC4 inflammasome activation in ICR mouse BMDM assessed as inhibition of FLA-ST-stimulated caspase-1 expression in cell supernatant at 1 uM treated for 3 hrs with LPS followed by incubation with compound for 1 hr and later stimulated with FLA-ST for 2 hrs by western blot analysis; format: cell-based
# [8] = biological target: NACHT, LRR and PYD domains-containing protein 3 (Mus musculus) (UniProt Q8R4B8); experiment: as §2, with “LPS/nigericin-stimulated IL-1 beta” for “LPS/ATP-stimulated caspase-1”, “nigericin” for “ATP”; format: cell-based; settings: time 1.5 hrs
# [9] = system: Mus musculus; experiment: as §1, with “TNF-alpha” for “IL-6”; format: functional, organism-based; settings: dose 0.1-1 mg/kg, time 3.5 day
# [10] = biological target: NACHT, LRR and PYD domains-containing protein 3 (Mus musculus) (UniProt Q8R4B8); experiment: Inhibition of NLRP3 inflammasome priming in ICR mouse BMDM assessed as inhibition of pro-caspase-1 protein expression in cell lysate at 0.2 to 5 uM treated for 3 hrs with LPS followed by incubation with compound for 1 hr and later stimulated with ATP for 0.5 hrs by western blot analysis; format: subcellular; settings: dose 0.2-5 µM, time 1.5 hrs
# [11] = biological target: NACHT, LRR and PYD domains-containing protein 3 (Mus musculus) (UniProt Q8R4B8); experiment: Inhibition of NLRP3 inflammasome priming in ICR mouse BMDM assessed as inhibition of LPS/ATP-stimulated TNF-alpha secretion in cell supernatant at 0.2 to 5 uM treated for 3 hrs with LPS followed by incubation with compound for 1 hr and later stimulated with ATP for 0.5 hrs by ELISA; format: cell-based; settings: dose 0.2-5 µM, time 1.5 hrs
# [12] = biological target: NACHT, LRR and PYD domains-containing protein 3 (Mus musculus) (UniProt Q8R4B8); experiment: Inhibition of NLRP3 inflammasome activation in ICR mouse BMDM assessed as inhibition of LPS/ATP-stimulated IL-1 beta expression in cell supernatant treated for 3 hrs with LPS followed by incubation with compound for 1 hr and later stimulated with ATP for 0.5 hrs by western blot analysis; format: cell-based; settings: dose 0.2-5 µM, time 1.5 hrs
# [13] = biological target: T1, Interferon-inducible protein AIM2 (Mus musculus) (UniProt Q91VJ1); experiment: as §2, with “AIM2” for “NLRP3”, “poly(dA:dT)-stimulated” for “LPS/ATP-stimulated”, “cells transfected” for “stimulated”, “poly(dA:dT)” for “ATP”, “4” for “0.5”; format: cell-based; settings: time 5.0 hrs
# T1 sequence (whole entry): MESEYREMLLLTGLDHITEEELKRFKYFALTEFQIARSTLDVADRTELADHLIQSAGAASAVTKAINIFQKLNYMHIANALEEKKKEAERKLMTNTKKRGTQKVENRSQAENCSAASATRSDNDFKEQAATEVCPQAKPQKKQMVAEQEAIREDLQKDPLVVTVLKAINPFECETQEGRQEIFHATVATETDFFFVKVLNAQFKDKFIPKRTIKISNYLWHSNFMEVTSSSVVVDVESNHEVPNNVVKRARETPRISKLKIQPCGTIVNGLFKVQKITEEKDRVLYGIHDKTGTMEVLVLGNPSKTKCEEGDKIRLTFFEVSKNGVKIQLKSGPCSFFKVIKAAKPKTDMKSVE
# [14] = biological target: NACHT, LRR and PYD domains-containing protein 3 (Mus musculus) (UniProt Q8R4B8); experiment: Inhibition of NLRP3 inflammasome activation in ICR mouse BMDM assessed as inhibition of LPS/nigericin-stimulated IL-1 beta secretion in cell supernatant at 1 uM treated for 3 hrs with LPS followed by incubation with compound for 1 hr and later stimulated with nigericin for 0.5 hrs by ELISA; format: cell-based; settings: time 1.5 hrs
# [15] = biological target: NLR family CARD domain-containing protein 4 (Mus musculus) (UniProt Q3UP24); experiment: Inhibition of NLRC4 inflammasome activation in ICR mouse BMDM assessed as inhibition of FLA-ST-stimulated IL-1 beta expression in cell supernatant at 1 uM treated for 3 hrs with LPS followed by incubation with compound for 1 hr and later stimulated with FLA-ST for 2 hrs by western blot analysis; format: cell-based
# [16] = system: Mus musculus; experiment: as §1, with “IL-18” for “IL-6”; format: functional, organism-based; settings: dose 0.1-1 mg/kg, time 3.5 day
# [17] = biological target: NACHT, LRR and PYD domains-containing protein 3 (Mus musculus) (UniProt Q8R4B8); experiment: Inhibition of NLRP3 inflammasome priming in ICR mouse BMDM assessed as inhibition of TNF-alpha secretion in cell supernatant at 0.2 to 5 uM pretreated with compound for 1 hr followed by stimulation with LPS for 3 hrs and later incubated with ATP for 30 mins by ELISA; format: cell-based; settings: dose 0.2-5 µM, time 4.5 hrs
# [18] = biological target: NACHT, LRR and PYD domains-containing protein 3 (Mus musculus) (UniProt Q8R4B8); experiment: Inhibition of NLRP3 inflammasome priming in ICR mouse BMDM assessed as inhibition of NLRP3 protein expression in cell lysate at 0.2 to 5 uM treated for 3 hrs with LPS followed by incubation with compound for 1 hr and later stimulated with ATP for 0.5 hrs by western blot analysis; format: subcellular; settings: dose 0.2-5 µM, time 1.5 hrs
# [19] = biological target: NACHT, LRR and PYD domains-containing protein 3 (Mus musculus) (UniProt Q8R4B8); experiment: Inhibition of NLRP3 inflammasome activation in ICR mouse BMDM assessed as inhibition of LPS/MSU-stimulated IL-1 beta expression in cell supernatant at 1 uM treated for 3 hrs with LPS followed by incubation with compound for 1 hr and later stimulated with MSU for 4 hrs by western blot analysis; format: cell-based; settings: time 5.0 hrs
# [20] = biological target: NACHT, LRR and PYD domains-containing protein 3 (Mus musculus, UniProt Q8R4B8); experiment: Inhibition of NLRP3 inflammasome activation in ICR mouse BMDM assessed as inhibition of LPS/ATP-stimulated IL-1 beta production in cell supernatant treated for 3 hrs with LPS followed by incubation with compound for 1 hr and later stimulated with ATP for 0.5 hrs by ELISA; format: cell-based
# [21] = system: Mus musculus; experiment: Anti-inflammatory activity against LPS-stimulated acute lung injury C57BL/6 mouse model assessed as decrease in IL-6 level in BALF at 0.1 to 1 mg/kg, ip treated for 3 days and on third day administered with LPS at 30 mins post-compound challenge and measured after 12 hrs by ELISA; format: functional, organism-based; settings: dose 0.1-1 mg/kg, time 3.5 day
# Chain of NACHT, LRR and PYD domains-containing protein 3 (Mus musculus) (Q8R4B8 whole entry, the tested form may be a part): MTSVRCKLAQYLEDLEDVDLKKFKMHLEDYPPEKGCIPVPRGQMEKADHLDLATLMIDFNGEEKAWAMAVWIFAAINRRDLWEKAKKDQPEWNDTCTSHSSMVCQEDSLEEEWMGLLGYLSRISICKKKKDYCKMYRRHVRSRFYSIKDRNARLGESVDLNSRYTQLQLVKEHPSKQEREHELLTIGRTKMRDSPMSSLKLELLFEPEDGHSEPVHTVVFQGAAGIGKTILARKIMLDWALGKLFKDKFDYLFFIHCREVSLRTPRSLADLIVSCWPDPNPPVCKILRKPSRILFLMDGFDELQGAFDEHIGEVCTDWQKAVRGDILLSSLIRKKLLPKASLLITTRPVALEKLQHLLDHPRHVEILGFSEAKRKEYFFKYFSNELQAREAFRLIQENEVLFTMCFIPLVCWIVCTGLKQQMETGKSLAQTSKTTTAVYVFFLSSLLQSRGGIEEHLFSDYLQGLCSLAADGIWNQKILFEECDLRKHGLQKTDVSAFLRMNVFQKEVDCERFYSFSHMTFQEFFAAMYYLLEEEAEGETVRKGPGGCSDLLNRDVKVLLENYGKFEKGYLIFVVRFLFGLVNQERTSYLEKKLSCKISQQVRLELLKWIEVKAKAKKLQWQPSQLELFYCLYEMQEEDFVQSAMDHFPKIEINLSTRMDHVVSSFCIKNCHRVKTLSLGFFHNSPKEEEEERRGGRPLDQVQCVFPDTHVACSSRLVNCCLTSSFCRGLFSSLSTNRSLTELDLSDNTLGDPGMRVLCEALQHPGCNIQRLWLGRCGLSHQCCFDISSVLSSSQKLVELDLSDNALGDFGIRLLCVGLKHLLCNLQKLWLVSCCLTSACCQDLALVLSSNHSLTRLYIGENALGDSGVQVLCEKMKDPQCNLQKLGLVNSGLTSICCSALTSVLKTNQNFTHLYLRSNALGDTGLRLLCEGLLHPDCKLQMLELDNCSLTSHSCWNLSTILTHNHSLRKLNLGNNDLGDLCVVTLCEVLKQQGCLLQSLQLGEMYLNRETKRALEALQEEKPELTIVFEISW
# Chain of NLR family CARD domain-containing protein 4 (Mus musculus) (Q3UP24 whole entry, the tested form may be a part): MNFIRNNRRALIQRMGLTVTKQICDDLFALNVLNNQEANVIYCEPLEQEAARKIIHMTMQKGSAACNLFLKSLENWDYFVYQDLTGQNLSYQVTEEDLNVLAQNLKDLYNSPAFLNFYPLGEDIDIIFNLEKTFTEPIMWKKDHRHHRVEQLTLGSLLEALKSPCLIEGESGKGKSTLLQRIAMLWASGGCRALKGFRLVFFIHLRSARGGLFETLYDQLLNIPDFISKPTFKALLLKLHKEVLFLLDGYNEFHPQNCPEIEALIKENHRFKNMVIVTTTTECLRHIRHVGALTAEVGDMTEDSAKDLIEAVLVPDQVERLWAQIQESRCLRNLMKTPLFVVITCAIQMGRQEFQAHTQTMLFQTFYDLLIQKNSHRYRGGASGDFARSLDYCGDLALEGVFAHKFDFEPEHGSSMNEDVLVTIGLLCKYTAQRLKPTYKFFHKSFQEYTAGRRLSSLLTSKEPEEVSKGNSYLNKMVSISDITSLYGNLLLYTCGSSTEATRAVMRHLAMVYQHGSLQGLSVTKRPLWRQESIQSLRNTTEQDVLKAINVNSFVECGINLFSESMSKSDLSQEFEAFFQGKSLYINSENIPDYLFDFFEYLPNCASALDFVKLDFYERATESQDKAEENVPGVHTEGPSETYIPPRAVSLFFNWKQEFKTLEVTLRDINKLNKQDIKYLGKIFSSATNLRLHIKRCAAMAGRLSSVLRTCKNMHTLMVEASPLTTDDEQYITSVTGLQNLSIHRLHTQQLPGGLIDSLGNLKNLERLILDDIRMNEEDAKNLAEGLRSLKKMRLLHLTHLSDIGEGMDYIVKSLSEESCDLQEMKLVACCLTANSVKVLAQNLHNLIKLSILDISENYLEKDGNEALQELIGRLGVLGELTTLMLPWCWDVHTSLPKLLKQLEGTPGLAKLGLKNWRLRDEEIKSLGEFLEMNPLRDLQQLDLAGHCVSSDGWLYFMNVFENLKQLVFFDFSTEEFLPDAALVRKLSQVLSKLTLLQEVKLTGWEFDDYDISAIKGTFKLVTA
# Chain of NACHT, LRR and PYD domains-containing protein 3 (Q8R4B8 whole entry, the tested form may be a part): as the sequence (Q8R4B8 whole entry, the tested form may be a part) above
compound,measurement,setting,value
C=C1C(=O)[C@]23[C@H](OC(=O)Nc4ccc(F)cc4)[C@H]1CC[C@H]2[C@]12C=CCC(C)(C)[C@H]1[C@H](O)[C@@]3(O)OC2,inhibition,[1],inactive
same,inhibition,[2],Active
same,Activity,[3],Dose-Dependent Effect
same,inhibition,[4],inactive
same,inhibition,[5],Active
same,Activity,[6],Active
same,inhibition,[7],inactive
same,inhibition,[8],Active
same,Activity,[9],Dose-Dependent Effect
same,inhibition,[10],inactive
same,inhibition,[11],inactive
same,inhibition,[12],Dose-Dependent Effect
same,inhibition,[13],inactive
same,inhibition,[14],Active
same,inhibition,[15],inactive
same,Activity,[16],Dose-Dependent Effect
same,inhibition,[17],inactive
same,inhibition,[18],inactive
same,inhibition,[19],Active
same,IC50,[20],41.8 nM
same,Activity,[21],Dose-Dependent Effect
